Laboratory results: US11053251B2, “GPR35 modulators” (Prometheus Biosciences, Inc., priority 2019, dated 2021)

biological target: Human GPR35 (Homo sapiens, UniProt Q9HC97, S294R); experiment: Alternative Beta-Arrestin Assay (JumpIn 294R Tango U2OS cells, LiveBLAzer-FRET B/G); assay type: cell-based; conditions: Human GPR35 expressing JumpIn 294R Tango U2OS cells, 5 hours treatment
Method: Human GPR35 expressing JumpIn (Thermo Fisher) 294R Tango U2OS cells were plated in 384-well format in clear bottom plates at a cell density of 10,000 cells/well and allowed to grow overnight. The next day, cells were treated with serially diluted test compounds for 5 hours. LiveBLAzer-FRET B/G (CCF4-AM) detection reagents were then added and cells were allowed to incubate for 2 hours before reading plates on a BioTek Cytation 5 plate reader. Zaprinast was used as a positive control for dose-response curves. In order to determine EC50 values, data w ere fit to a four-parameter dose-response curves.

Chain of Human GPR35 (Q9HC97 whole entry S294R): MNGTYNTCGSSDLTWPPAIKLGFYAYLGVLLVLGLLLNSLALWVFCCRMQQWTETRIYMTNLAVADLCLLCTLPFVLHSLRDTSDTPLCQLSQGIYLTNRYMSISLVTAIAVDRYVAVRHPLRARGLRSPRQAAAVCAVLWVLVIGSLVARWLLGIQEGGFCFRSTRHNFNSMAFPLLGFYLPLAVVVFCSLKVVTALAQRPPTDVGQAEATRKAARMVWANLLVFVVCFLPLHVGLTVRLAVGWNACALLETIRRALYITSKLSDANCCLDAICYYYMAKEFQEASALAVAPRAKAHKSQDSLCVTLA

| SMILES | EC50 |
| --- | --- |
| CCOc1cc(-c2cccc(C[C@H](NC(C)=O)C(=O)O)c2)ccc1-c1nc2[nH]nnc2c(=O)[nH]1 [Compound 293, (S)-2-acetamido-3-(3′-ethoxy-4′-(7-oxo-6,7-dihydro-3H-[1,2,3]triazolo[4,5-d]pyrimidin-5-yl)-[1,1′-biphenyl]-3-yl)propanoic acid] | ≤ 10 µM |
| CCOc1cc(-c2ccc(OC(C)C)c(CC(C)C(=O)O)c2)ccc1-c1nc2[nH]nnc2c(=O)[nH]1 (stereo not drawn) [Compound 302, 3-(3′-ethoxy-4-isopropoxy-4′-(7-oxo-6,7-dihydro-3H-[1,2,3]triazolo[4,5-d]pyrimidin-5-yl)-[1,1′-biphenyl]-3-yl)-2-methylpropanoic acid] | ≤ 10 µM |
| CCOc1cc(-c2ccc(OCCN(C)C)c(CCC(=O)O)c2)ccc1-c1nc2[nH]nnc2c(=O)[nH]1 [Compound 320, 3-(4-(2-(dimethylamino)ethoxy)-3′-ethoxy-4′-(7-oxo-6,7-dihydro-3H-[1,2,3]triazolo[4,5-d]pyrimidin-5-yl)-[1,1′-biphenyl]-3-yl)propanoic acid] | ≤ 10 µM |
| O=C(O)CNc1cccc(-c2ccc(-c3nc4[nH]nnc4c(=O)[nH]3)c(OCCN3CCCC3)c2)c1 [Compound 230, (4′-(7-Oxo-6,7-dihydro-3H-[1,2,3]triazolo[4,5-d]pyrimidin-5-yl)-3′-(2-(pyrrolidin-1-yl)ethoxy)-[1,1′-biphenyl]-3-yl)glycine] | 10 to 50 µM |
| O=C(O)c1ccc(-c2ccc(-c3nc4[nH]nnc4c(=O)[nH]3)c(OC3CCCC3)c2)c(O)c1 [Compound 202, 3′-(Cyclopentyloxy)-2-hydroxy-4′-(7-oxo-6,7-dihydro-3H-[1,2,3]triazolo[4,5-d]pyrimidin-5-yl)-[1,1′-biphenyl]-4-carboxylic acid] | ≤ 10 µM |
| O=C(O)COc1cccc(-c2ccc(-c3nc4[nH]nnc4c(=O)[nH]3)c(OC3CCCC3)c2)c1 [Compound 216, 2-((3′-(Cyclopentyloxy)-4′-(7-oxo-6,7-dihydro-3H-[1,2,3]triazolo[4,5-d]pyrimidin-5-yl)-[1,1′-biphenyl]-3-yl)oxy)acetic acid] | ≤ 10 µM |
| CCOC(=O)COc1cccc(-c2ccc(-c3nc4[nH]nnc4c(=O)[nH]3)c(OC3CCCC3)c2)c1 [Compound 270, ethyl 2-((3′-(cyclopentyloxy)-4′-(7-oxo-6,7-dihydro-3H-[1,2,3]triazolo[4,5-d]pyrimidin-5-yl)-[1,1′-biphenyl]-3-yl)oxy)acetate] | ≤ 10 µM |

Results, then the compound that gave them:

| EC50 | SMILES |
| --- | --- |
| ≤ 10 µM | CCOc1cc(-c2cc(O)cc(C(=O)O)c2)ccc1-c1nc2[nH]nnc2c(=O)[nH]1 [Compound 198, 3′-Ethoxy-5-hydroxy-4′-(7-oxo-6,7-dihydro-3H-[1,2,3]triazolo[4,5-d]pyrimidin-5-yl)-[1,1′-biphenyl]-3-carboxylic acid] |
| ≤ 10 µM | CCOc1cc(-c2cc(O)cc(NCC(=O)O)c2)ccc1-c1nc2[nH]nnc2c(=O)[nH]1 [Compound 223, (3′-Ethoxy-5-hydroxy-4′-(7-oxo-6,7-dihydro-3H-[1,2,3]triazolo[4,5-d]pyrimidin-5-yl)-[1,1′-biphenyl]-3-yl)glycine] |
| ≤ 10 µM | CCOc1cc(-c2ccc(OC)c(/C=C(\C)C(=O)O)c2)ccc1-c1nc2[nH]nnc2c(=O)[nH]1 [Compound 315, (E)-3-(3′-ethoxy-4-methoxy-4′-(7-oxo-6,7-dihydro-3H-[1,2,3]triazolo[4,5-d]pyrimidin-5-yl)-[1,1′-biphenyl]-3-yl)-2-methylacrylic acid] |
| ≤ 10 µM | CCOc1cc(-c2cccc(C[C@@H](N)C(=O)O)c2)ccc1-c1nc2[nH]nnc2c(=O)[nH]1 [Compound 275, (R)-2-amino-3-(3′-ethoxy-4′-(7-oxo-6,7-dihydro-3H-[1,2,3]triazolo[4,5-d]pyrimidin-5-yl)-[1,1′-biphenyl]-3-yl)propanoic acid] |

same assay, conditions: at 50 μM; Table 2

| % inhibition at 50 μM | SMILES |
| --- | --- |
| 12% inhibition at | CCOC(=O)C1(Cc2cccc(-c3ccc(-c4nc5[nH]nnc5c(=O)[nH]4)c(OCC)c3)c2)CCC1 [Compound 245, ethyl 1-((3′-ethoxy-4′-(7-oxo-6,7-dihydro-3H-[1,2,3]triazolo[4,5-d]pyrimidin-5-yl)-[1,1′-biphenyl]-3-yl)methyl)cyclobutane-1-carboxylate] |
